Biological target: T1, SoArsAB (Sporomusa ovata, UniProt F6MZ55+F6MZ56)
T1 sequence (F6MZ55 5-350 limits assumed): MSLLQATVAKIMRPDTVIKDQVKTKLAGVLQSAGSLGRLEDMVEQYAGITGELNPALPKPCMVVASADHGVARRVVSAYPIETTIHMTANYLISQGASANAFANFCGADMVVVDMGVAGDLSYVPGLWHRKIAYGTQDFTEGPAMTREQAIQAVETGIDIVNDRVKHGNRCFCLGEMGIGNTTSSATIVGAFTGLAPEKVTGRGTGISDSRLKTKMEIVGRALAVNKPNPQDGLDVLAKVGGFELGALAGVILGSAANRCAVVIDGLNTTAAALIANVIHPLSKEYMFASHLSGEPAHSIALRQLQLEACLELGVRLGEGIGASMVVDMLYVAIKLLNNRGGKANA
T1 sequence (F6MZ56 1-350): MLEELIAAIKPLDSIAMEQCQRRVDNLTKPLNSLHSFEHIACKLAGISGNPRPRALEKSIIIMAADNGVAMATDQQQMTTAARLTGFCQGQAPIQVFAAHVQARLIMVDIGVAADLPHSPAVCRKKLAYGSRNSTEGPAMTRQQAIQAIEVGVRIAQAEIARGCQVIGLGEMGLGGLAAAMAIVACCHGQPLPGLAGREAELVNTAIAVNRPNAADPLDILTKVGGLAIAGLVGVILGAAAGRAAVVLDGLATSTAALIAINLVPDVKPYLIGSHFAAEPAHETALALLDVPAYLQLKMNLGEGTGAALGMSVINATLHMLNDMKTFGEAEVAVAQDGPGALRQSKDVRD
Assay: HPLC product formation
Type: biochemical
Conditions: pH 10, 37 °C, 6 h

Compound: O=C([O-])c1ccc[n+]([C@@H]2O[C@H](COP(=O)(O)O)[C@@H](O)[C@H]2O)c1 [NaMN, nicotinate mononucleotide]
- HPLC product formation (3 mM p-cresol): using SeCobT^WT, SeCobT^S80Y,Q88M,L175M or SoArsAB with NaMN and p-cresol

Compound: Cc1ccc(O)cc1 [p-cresol]
- HPLC product formation (3 mM NaMN): using SeCobT^WT, SeCobT^S80Y,Q88M,L175M or SoArsAB with NaMN and p-cresol

Reference: publication PMC3900240 (Biochimica et biophysica acta, 2013)
